Data taken from US11472791B2 (Incyte Corporation, priority 2019, dated 2022).

Target: CDK2/Cyclin E1 (Homo sapiens (Human), UniProt P24941)
Assay: CDK2/Cyclin E1 HTRF enzyme activity assay
Assay type: biochemical
Details: 1 mM ATP
Description: Assays are conducted in white 384-well polystyrene plates in a final reaction volume of 8 μL. […] HTRF signals are read after 1 hour at room temperature on a PHERAstar FS plate reader (BMG Labtech). Data is analyzed with IDBS XLFit and GraphPad Prism 5.0 software using a three or four parameter dose response curve to determine IC50 for each compound.

Row | IC50 | SMILES
1 | < 0.05 µM | CNCc1ccc(-n2cc(-c3nc(NC4CCN(S(=O)(=O)c5cn(C)cn5)CC4)ncc3C(F)(F)F)cn2)c(C)n1 [Example 268, N-(1-((1-Methyl-1H-imidazol-4-yl)sulfonyl)piperidin-4-yl)-4-(1-(2-methyl-6-((methylamino)methyl)pyridin-3-yl)-1H-pyrazol-4-yl)-5-(trifluoromethyl)pyrimidin-2-amine]
2 | < 0.05 µM | CCNCc1ccc(-n2cc(-c3nc(NC4CCN(S(=O)(=O)c5cn(C)cn5)CC4)ncc3C(F)(F)F)cn2)c(C)n1 [Example 269, 4-(1-(6-((Ethylamino)methyl)-2-methylpyridin-3-yl)-1H-pyrazol-4-yl)-N-(1-((1-methyl-1H-imidazol-4-yl)sulfonyl)piperidin-4-yl)-5-(trifluoromethyl)pyrimidin-2-amine]
3 | < 0.05 µM | CNCc1ccc(-n2cc(-c3nc(N[C@H]4CCN(S(=O)(=O)c5cn(C)cn5)C[C@H]4C)ncc3C(F)(F)F)cn2)c(C)n1 [Example 270, N-((3R,4S)-3-Methyl-1-((1-methyl-1H-imidazol-4-yl)sulfonyl)piperidin-4-yl)-4-(1-(2-methyl-6-((methylamino)methyl)pyridin-3-yl)-1H-pyrazol-4-yl)-5-(trifluoromethyl)pyrimidin-2-amine]
4 | < 0.05 µM | CCNCc1ccc(-n2cc(-c3nc(N[C@H]4CCN(S(=O)(=O)c5cn(C)cn5)C[C@H]4C)ncc3C(F)(F)F)cn2)c(C)n1 [Example 271, 4-(1-(6-((Ethylamino)methyl)-2-methylpyridin-3-yl)-1H-pyrazol-4-yl)-N-((3R,4S)-3-methyl-1-((1-methyl-1H-imidazol-4-yl)sulfonyl)piperidin-4-yl)-5-(trifluoromethyl)pyrimidin-2-amine]
5 | < 0.05 µM | CNCc1ccc(-n2cc(-c3nc(N[C@H]4CCN(S(=O)(=O)c5cn(C)cn5)C[C@H]4C)ncc3C#N)cn2)c(C)n1 [Example 272, 2-(((3R,4S)-3-Methyl-1-((1-methyl-1H-imidazol-4-yl)sulfonyl)piperidin-4-yl)amino)-4-(1-(2-methyl-6-((methylamino)methyl)pyridin-3-yl)-1H-pyrazol-4-yl)pyrimidine-5-carbonitrile]
6 | < 0.05 µM | CCNCc1ccc(-n2cc(-c3nc(N[C@H]4CCN(S(=O)(=O)c5cn(C)cn5)C[C@H]4C)ncc3C#N)cn2)c(C)n1 [Example 273, 4-(1-(6-((Ethylamino)methyl)-2-methylpyridin-3-yl)-1H-pyrazol-4-yl)-2-(((3R,4S)-3-methyl-1-((1-methyl-1H-imidazol-4-yl)sulfonyl)piperidin-4-yl)amino)pyrimidine-5-carbonitrile]
7 | < 0.05 µM | Cc1nc(CNC(C)C)ccc1-n1cc(-c2nc(NC3CCN(S(=O)(=O)c4cn(C)cn4)CC3)ncc2Cl)cn1 [Example 274, 5-Chloro-4-(1-(6-((isopropylamino)methyl)-2-methylpyridin-3-yl)-1H-pyrazol-4-yl)-N-(1-((1-methyl-1H-imidazol-4-yl)sulfonyl)piperidin-4-yl)pyrimidin-2-amine]
8 | < 0.05 µM | Cc1nc(CNC(C)C)ccc1-n1cc(-c2nc(NC3CCN(S(=O)(=O)c4cn(C)cn4)CC3)ncc2C(F)(F)F)cn1 [Example 275, 4-(1-(6-((Isopropylamino)methyl)-2-methylpyridin-3-yl)-1H-pyrazol-4-yl)-N-(1-((1-methyl-1H-imidazol-4-yl)sulfonyl)piperidin-4-yl)-5-(trifluoromethyl)pyrimidin-2-amine]
9 | < 0.05 µM | Cc1nc(CNC(C)C)ccc1-n1cc(-c2nc(N[C@H]3CCN(S(=O)(=O)c4cn(C)cn4)C[C@H]3C)ncc2C(F)(F)F)cn1 [Example 276, 4-(1-(6-((Isopropylamino)methyl)-2-methylpyridin-3-yl)-1H-pyrazol-4-yl)-N-((3R,4S)-3-methyl-1-((1-methyl-1H-imidazol-4-yl)sulfonyl)piperidin-4-yl)-5-(trifluoromethyl)pyrimidin-2-amine]
10 | < 0.05 µM | Cc1nc(CNC(C)(C)C)ccc1-n1cc(-c2nc(NC3CCN(S(=O)(=O)C4CC4)CC3)ncc2C#N)cn1 [Example 277, 4-(1-(6-((tert-Butylamino)methyl)-2-methylpyridin-3-yl)-1H-pyrazol-4-yl)-2-((1-(cyclopropylsulfonyl)piperidin-4-yl)amino)pyrimidine-5-carbonitrile]
11 | < 0.05 µM | Cc1nc(CNC(C)C)ccc1-n1cc(-c2nc(N[C@H]3CCN(S(=O)(=O)c4cn(C)cn4)C[C@H]3C)ncc2C#N)cn1 [Example 278, 4-(1-(6-((Isopropylamino)methyl)-2-methylpyridin-3-yl)-1H-pyrazol-4-yl)-2-(((3R,4S)-3-methyl-1-((1-methyl-1H-imidazol-4-yl)sulfonyl)piperidin-4-yl)amino)pyrimidine-5-carbonitrile]
12 | < 0.05 µM | COC(=O)N[C@@H]1CC[C@@H](NCc2ccc(-n3cc(-c4nc(NC5CCN(S(C)(=O)=O)CC5)ncc4C#N)cn3)c(Cl)c2)C1 [Example 279, Methyl ((1R,3R)-3-((3-chloro-4-(4-(5-cyano-2-((1-(methylsulfonyl)piperidin-4-yl)amino)pyrimidin-4-yl)-1H-pyrazol-1-yl)benzyl)amino)cyclopentyl)carbamate]
13 | < 0.05 µM | COC(=O)N[C@H]1CC[C@@H](NCc2ccc(-n3cc(-c4nc(NC5CCN(S(C)(=O)=O)CC5)ncc4C#N)cn3)c(Cl)c2)C1 [Example 280, Methyl ((1S,3R)-3-((3-chloro-4-(4-(5-cyano-2-((1-(methylsulfonyl)piperidin-4-yl)amino)pyrimidin-4-yl)-1H-pyrazol-1-yl)benzyl)amino)cyclopentyl)carbamate]
14 | < 0.05 µM | COC(=O)N[C@H]1CCC[C@@H]1NCc1ccc(-n2cc(-c3nc(NC4CCN(S(C)(=O)=O)CC4)ncc3C#N)cn2)c(Cl)c1 [Example 281, Methyl ((1,S,2S)-2-((3-chloro-4-(4-(5-cyano-2-((1-(methylsulfonyl)piperidin-4-yl)amino)pyrimidin-4-yl)-1H-pyrazol-1-yl)benzyl)amino)cyclopentyl)carbamate]
15 | < 0.05 µM | COC(=O)NCC1(NCc2ccc(-n3cc(-c4nc(NC5CCN(S(C)(=O)=O)CC5)ncc4C#N)cn3)c(Cl)c2)CCCC1 [Example 282, Methyl ((1-((3-chloro-4-(4-(5-cyano-2-((1-(methylsulfonyl)piperidin-4-yl)amino)pyrimidin-4-yl)-1H-pyrazol-1-yl)benzyl)amino)cyclopentyl)methyl)carbamate]
16 | < 0.05 µM | C[C@]1(O)CC[C@@H](NCc2ccc(-n3cc(-c4nc(NC5CCN(S(=O)(=O)C6CC6)CC5)ncc4C#N)cn3)c(Cl)c2)CC1 [Example 283, 4-(1-(2-Chloro-4-((((1s,4s)-4-hydroxy-4-methylcyclohexyl)amino)methyl)phenyl)-1H-pyrazol-4-yl)-2-((1-(cyclopropylsulfonyl)piperidin-4-yl)amino)pyrimidine-5-carbonitrile]
17 | < 0.05 µM | C[C@]1(O)CC[C@H](NCc2ccc(-n3cc(-c4nc(NC5CCN(S(=O)(=O)C6CC6)CC5)ncc4C#N)cn3)c(Cl)c2)CC1 [Example 284, 4-(1-(2-Chloro-4-((((1r,4r)-4-hydroxy-4-methylcyclohexyl)amino)methyl)phenyl)-1H-pyrazol-4-yl)-2-((1-(cyclopropylsulfonyl)piperidin-4-yl)amino)pyrimidine-5-carbonitrile]
18 | < 0.05 µM | C[C@]1(O)C[C@@H](NCc2ccc(-n3cc(-c4nc(NC5CCN(S(=O)(=O)C6CC6)CC5)ncc4C#N)cn3)c(Cl)c2)C1 [Example 285, 4-(1-(2-Chloro-4-((((1s,3s)-3-hydroxy-3-methylcyclobutyl)amino)methyl)phenyl)-1H-pyrazol-4-yl)-2-((1-(cyclopropylsulfonyl)piperidin-4-yl)amino)pyrimidine-5-carbonitrile]
19 | < 0.05 µM | C[C@]1(O)C[C@H](NCc2ccc(-n3cc(-c4nc(NC5CCN(S(=O)(=O)C6CC6)CC5)ncc4C#N)cn3)c(Cl)c2)C1 [Example 286, 4-(1-(2-Chloro-4-((((1r,3r)-3-hydroxy-3-methylcyclobutyl)amino)methyl)phenyl)-1H-pyrazol-4-yl)-2-((1-(cyclopropylsulfonyl)piperidin-4-yl)amino)pyrimidine-5-carbonitrile]
20 | < 0.05 µM | CS(=O)(=O)N1CCC(Nc2ncc(C#N)c(-c3cnn(-c4ccc(CN[C@@H]5CCCC[C@H]5CO)cc4Cl)c3)n2)CC1 [Example 288]
21 | < 0.05 µM | CS(=O)(=O)N1CCC(Nc2ncc(C#N)c(-c3cnn(-c4ccc(CN[C@H]5CC[C@@H](CO)CC5)cc4Cl)c3)n2)CC1 [Example 289, 4-(1-(2-chloro-4-((((1s,4s)-4-(hydroxymethyl)cyclohexyl)amino)methyl)phenyl)-1H-pyrazol-4-yl)-2-((1-(methylsulfonyl)piperidin-4-yl)amino)pyrimidine-5-carbonitrile]
22 | < 0.05 µM | CS(=O)(=O)N1CCC(Nc2ncc(C#N)c(-c3cnn(-c4ccc(CNCCN5CCS(=O)(=O)CC5)cc4Cl)c3)n2)CC1 [Example 290, 4-(1-(2-Chloro-4-(((2-(1,1-dioxidothiomorpholino)ethyl)amino)methyl)phenyl)-1H-pyrazol-4-yl)-2-((1-(methylsulfonyl)piperidin-4-yl)amino)pyrimidine-5-carbonitrile]
23 | < 0.05 µM | C[C@@H](O)CNCc1ccc(-n2cc(-c3nc(NC4CCN(S(C)(=O)=O)CC4)ncc3C#N)cn2)c(Cl)c1 [Example 291, (R)-4-(1-(2-Chloro-4-(((2-hydroxypropyl)amino)methyl)phenyl)-1H-pyrazol-4-yl)-2-((1-(methylsulfonyl)piperidin-4-yl)amino)pyrimidine-5-carbonitrile]
24 | < 0.05 µM | C[C@H](O)CNCc1ccc(-n2cc(-c3nc(NC4CCN(S(C)(=O)=O)CC4)ncc3C#N)cn2)c(Cl)c1 [Example 292, (S)-4-(1-(2-Chloro-4-(((2-hydroxypropyl)amino)methyl)phenyl)-1H-pyrazol-4-yl)-2-((1-(methylsulfonyl)piperidin-4-yl)amino)pyrimidine-5-carbonitrile]
